Assay [1] relates to Swiss albino mice (tail immersion model). The assay is described as follows: Tail immersion model, analgesic potential in experimental mice. It counts as in vivo. Conditions: for Tail immersion latency reaction time: water 55° C., cut off 15 second, Mean ± SEM, n=6; for Percentage maximum possible effect: [(Post drug latency-Pre drug latency)/(15-Pre drug latency)]×100. The protocol: Animal Study—Evaluation of analgesic potential of the test substances against tail immersion model in experimental mice.
Male Swiss albino mice weighing between 30-35 g were used. Mice were placed into individual cylindrical mice holders leaving the tail hanging out freely. The animals were allowed to get acclimatized to mice holders for 30 min before testing. The lower 5 cm portion of the tail was marked. This part of the tail was immersed in a cup of freshly filled water at 55° C. The reaction time was recorded using a stop-watch. After each determination the tail was carefully dried. The reaction time was determined before and periodically 0 min, 30 min, 60 min, 90 min, 120 min, 180 min and 240 min after the oral administration of test substance. The cut off time of immersion was 15 second. The percentage maximum possible effect (% MPE) was calculated using the following formula: [(Post drug latency-Pre drug latency)/(15-Pre drug latency)]×100.
The values were expressed in Mean±SEM. The significance of in vivo data was analyzed by One way anova followed by Dunnet test. P<0.05 was considered as statistically significant.

The subject of a further assay is eNOS gene. As to the kind of experiment: eNOS gene expression by semi-quantitative RT-PCR in H9C2 cells. It counts as cell-based, rat. Conditions: for Regulation in Terms of Folds, eNOS (normalized to β-Actin): control = 1.00. Here is the method: The test substances were evaluated for its gene expression activity in H9C2 (rat cardiomyocytes), the concentration of test substances (G2, G3 and G4,) is 500 μg/ml were taken for gene expression studies. […] [Hunter C. Champion, et al., PNAS, 2005; 102:5:1661-1666.]
eNOS were estimated for the test substance by gene expression method, where the level of expression of eNOS expression on […] Cardiomyocytes (H9C2) was determined with respect to untreated H9C2 cells.
The H9C2 cells treated with test samples were subjected to cell lysis by treating with Tri-extract reagent. Chloroform was added, to isolate the total RNA from the sample and subjected for centrifugation. Out of the three distinct layers observed, upper layer was collected in fresh tube and equal volume of isopropanol was added and incubated at […] for 10 mins. After the incubation followed by centrifugation, appropriate volume of ethanol was added to resuspend the pellet. After incubation and centrifugation, the pellet was air dried and appropriate volume of TAE buffer was added. The isolated total RNA was further used for cDNA synthesis. cDNA was synthesized by priming with oligo-dT primers followed by reverse transcriptase enzyme treatment according to manufacturer's protocol (Thermoscientific). The cDNA thus synthesized was taken up for PCR for the amplification of eNOS and GAPDH (internal control).
The mRNA expression levels of eNOS were determined using semi-quantitative reverse transcriptase-polymerase chain reaction (RT-PCR). 50p of the reaction mixture was subjected to PCR for amplification of eNOS. cDNAs using specifically designed primers procured from Eurofins, India and as an internal control GAPDH/3-Actin (House-keeping genes) was co-amplified with each reaction.
eNOS: 95° C. for 5 min followed by 35 cycles of denaturation at 95° C. for 30 seconds, annealing Temp for 30 seconds and extension at 72° C. for 45 seconds. This was followed by final extension at 72° C. for 10 min.

Consider `CCCCCCCCCCCCCCCC(=O)NCCO` [Composition P3A, palmitoylethanolamide], for which the “Tail immersion latency reaction time” value in assay [1] (0 Min, oral) was 2.50 s; in assay [1] (30 Min after oral administration), 5.17 s; in assay [1] (60 Min after oral administration), 5.83 s; in assay [1] (90 Min after oral administration) it was 6.50 s; in assay [1] (120 Min after oral administration), 7.50 s; in assay [1] (180 Min after oral administration), 8.33 s. Moreover, the “Tail immersion latency reaction time” value in assay [1] (240 Min after oral administration) is 7.50 s. Besides, the “Percentage maximum possible effect” value worked out at 21.33% in assay [1] (30 Min); 26.67% in assay [1] (60 Min); 32.00% in assay [1] (90 Min); 40.00% in assay [1] (120 Min); 46.67% in assay [1] (180 Min); 40.00% in assay [1] (240 Min). The “Percentage maximum possible effect compared with Pain control group (in words)” value in assay [1] (different intervals of time) is recorded as “significant increased”. For the same compound, in assay [1] (different time intervals, One way anova, Dunnet test, P<0.05), the “Tail immersion latency reaction time compared with Pain control group (in words)” value is recorded as “significant increased”. Moreover, in the assay with eNOS gene (at tested doses (500 μg/ml), increase over control), the “eNOS expression over expressed as compared to the control” value came out at 0.25 folds. Further, the “Regulation in Terms of Folds, eNOS (normalized to β-Actin)” value with eNOS gene (test substance 500 μg/ml) is 1.25 fold.
In the case of `CC(C)C[C@H](CN)CC(=O)O` [Pregabalin (LYRICA ®) 75 mg, Pregabalin, reference compound], in assay [1] (mouse, in vivo), the “Percentage maximum possible effect compared with Pain control group (in words)” value was “significant increased” and the “Tail immersion latency reaction time compared with Pain control group (in words)” value is given as “significant increased”. Moreover, the “Regulation in Terms of Folds, eNOS (normalized to β-Actin)” value in the assay on eNOS gene (125 μg/ml) was found to be 1.58 fold. For the same compound, in the assay with eNOS gene (standard product (125 μg/ml), increase over control), the “eNOS gene expression up-regulated over control” value was determined as 0.58 fold.

The values above are taken from US10653737B1, “Synergistic nutritional compositions for pain management” (Celagenex Research (India) Pvt. Ltd., priority 2019, dated 2020).
